Assay [1] has as its target T1, TNFα converting enzyme (Homo sapiens, UniProt P78536).
T1 construct: Membrane preparation from MonoMac 6 cells; endogenous in cells; host or cells: MonoMac 6 cells (membrane preparation, subfractionated extract)
The experiment in a line: TNFα Converting Enzyme Inhibition Protocol. In kind it is biochemical. Conditions: cell-free, MonoMac 6 membrane preparation; IC50 equivalent to Ki at [S]<<Km. The method, then: B. TNFα Converting Enzyme Inhibition Protocol
The reaction is quenched by addition of streptavidin SPA beads (Amersham RPNQ0006), with excess binding capacity relative to substrate, suspended in 250 mM EDTA, pH 8.0. Binding is complete within 15 minutes and plates are counted in a Wallac 1450 Microbeta liquid scintillation counter. Percent inhibition is calculated at each inhibitor concentration and the data were plotted using standard curve fitting programs. IC50 values were determined from these curves.

Assay [2] deals with T2, 19 kD truncated collagenase-1 (MMP-1) (Homo sapiens, UniProt P03956).
T2 construct: 19 kD truncated collagenase-1 (MMP-1)
T2 sequence (P03956 101-269 limits assumed): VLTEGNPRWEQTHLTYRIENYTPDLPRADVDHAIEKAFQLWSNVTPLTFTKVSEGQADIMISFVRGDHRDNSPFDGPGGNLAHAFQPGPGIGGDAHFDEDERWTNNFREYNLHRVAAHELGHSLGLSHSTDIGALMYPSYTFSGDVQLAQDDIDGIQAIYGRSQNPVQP
Nature of the assay: Matrix Metalloprotease Inhibition Protocol, collagenase-1. In kind it is biochemical. To be noted: fluorogenic substrate, pH 7.6; IC50 equivalent to Ki at [S]<<Km. The method, then:
(§1) A. Matrix Metalloprotease Inhibition Protocol
(§2) Assays are conducted in a total volume of 0.180 mL assay buffer (200 mM NaCl, 50 mM Tris, 5 mM CaCl2, 10 μM ZnSO4, 0.005% Brij 35, pH 7.6) in each well of a black 96 well microtiter plate. 19 kD collagenase-1, 20 kD collagenase-3, stromelysin-1,and 50 kD gelatinase B concentrations are adjusted to 500 pM, 30 pM, 5 nM, and 100 pM, respectively. A dose response is generated using an eleven-point, 3-fold serial dilution with initial starting test compound concentrations of 100, 10, or 1 μM. Inhibitor and enzyme reactions are incubated for 30 minutes at ambient temperature and then initiated with 10 μM fluorogenic substrate (above). The product formation is measured at Excitation343 /Emission450 nm after 45-180 minutes using a Fluostar SLT fluorescence analyzer. Percent inhibition is calculated at each inhibitor concentration and the data were plotted using standard curve fitting programs. IC50 values were determined from these curves. Assays were run at low substrate concentration ([S]<<Km) such that the calculated IC50 values are equivalent to Ki within experimental error.

The target in assay [3] is 20 kD truncated collagenase-3 (MMP-13). Nature of the assay: Matrix Metalloprotease Inhibition Protocol, collagenase-3. Conditions: fluorogenic substrate, pH 7.6; IC50 equivalent to Ki at [S]<<Km. In kind it is biochemical. Here is the method:
as §1
as §2, with “curves.” for “curves. Assays were run at low substrate concentration ([S]<<Km) such that the calculated IC50 values are equivalent to Ki within experimental error.”

The target of assay [4] is 50 kD truncated gelatinase B (MMP-9). The experiment in a line: Matrix Metalloprotease Inhibition Protocol, gelatinase B. In kind it is biochemical. To be noted: fluorogenic substrate, pH 7.6; IC50 equivalent to Ki at [S]<<Km. Here is the method: as §1
as §2, with “curves.” for “curves. Assays were run at low substrate concentration ([S]<<Km) such that the calculated IC50 values are equivalent to Ki within experimental error.”

Assay [5] addresses stromelysin-1 (MMP-3) (Homo sapiens, UniProt P08254). Nature of the assay: Matrix Metalloprotease Inhibition Protocol, stromelysin-1. In kind it is biochemical. Conditions: fluorogenic substrate, pH 7.6; IC50 equivalent to Ki at [S]<<Km. Here is the method: as §1, §2
Assay [6] concerns serum TNFα. Nature of the assay: Murine LPS-Stimulated Serum TNF Inhibition Protocol. In kind it is in vivo. To be noted: 40 mg/kg, 10 min prior to LPS, mice, 90 min after LPS. The method, then:
Murine LPS--Stimulated Serum TNF Inhibition Protocol
The potency of compounds of the invention as inhibitors of serum TNFα elevation in mice treated with lipopolysaccharide (LPS) is determined as follows; a) for subcutaneous (s.c.) administration, test compound is dissolved in DMSO and added to a mixture of 0.9% sodium chloride solution and 30% Trappsol HPB-20 (Cyclodextrin Technology Development Inc., Gainesville, Fla. USA) for a final DMSO concentration of 1%. The dosing solution is sonicated briefly and 0.2 mL is injected subcutaneously 10 min prior to LPS injection, b) for per oral (p.o.) administration, test compounds are formulated in 0.2 mL of PBS and 0.1% Tween 80 and given orally via gavage 10 min prior to LPS administration.
C3/hen female mice are injected intraperitoneally with 200 μg/kg LPS (Escherichia coli, Serotype 0111:B4, Sigma Chemical Co, St. Louis, Mo.) in PBS and sacrificed 90 min later by CO2 asphyxiation. Blood is immediately taken from the caudal vena cava and plasma prepared and frozen at -80° C. Plasma concentrations of TNF are measured by ELISA (Genzyme Co., Cambridge Mass.).

The structures appear in SMILES notation.

T1 sequence (P78536 215-824): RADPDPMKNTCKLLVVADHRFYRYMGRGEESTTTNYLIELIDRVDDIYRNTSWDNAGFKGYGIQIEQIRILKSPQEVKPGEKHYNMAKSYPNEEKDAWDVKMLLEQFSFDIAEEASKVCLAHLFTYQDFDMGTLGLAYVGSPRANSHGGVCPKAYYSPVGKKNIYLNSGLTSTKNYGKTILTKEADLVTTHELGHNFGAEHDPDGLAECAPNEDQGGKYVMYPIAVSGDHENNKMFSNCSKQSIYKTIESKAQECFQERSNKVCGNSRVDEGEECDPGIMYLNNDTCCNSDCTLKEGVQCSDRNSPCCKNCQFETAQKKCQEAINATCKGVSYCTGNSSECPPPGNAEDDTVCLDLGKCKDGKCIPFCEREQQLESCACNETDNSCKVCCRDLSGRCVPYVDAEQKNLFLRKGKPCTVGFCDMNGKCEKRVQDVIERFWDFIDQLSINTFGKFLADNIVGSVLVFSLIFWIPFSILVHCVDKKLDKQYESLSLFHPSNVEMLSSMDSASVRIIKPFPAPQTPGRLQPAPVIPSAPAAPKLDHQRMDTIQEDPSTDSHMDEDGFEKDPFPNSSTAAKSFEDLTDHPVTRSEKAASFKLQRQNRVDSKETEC
stromelysin-1 (MMP-3), sequence (P08254 100-477): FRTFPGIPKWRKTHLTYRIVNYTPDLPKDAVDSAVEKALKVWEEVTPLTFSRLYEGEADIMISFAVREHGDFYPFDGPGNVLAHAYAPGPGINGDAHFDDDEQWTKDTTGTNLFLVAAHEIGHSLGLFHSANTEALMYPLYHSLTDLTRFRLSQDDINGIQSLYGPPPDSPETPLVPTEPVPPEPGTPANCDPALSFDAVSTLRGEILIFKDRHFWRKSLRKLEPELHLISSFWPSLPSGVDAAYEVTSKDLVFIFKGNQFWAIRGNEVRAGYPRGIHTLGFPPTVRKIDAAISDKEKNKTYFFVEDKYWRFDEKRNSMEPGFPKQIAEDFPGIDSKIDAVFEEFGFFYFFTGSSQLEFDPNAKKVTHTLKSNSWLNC

`CC(C)(C)[C@H](NC(=O)[C@H](CCCc1ccccc1)[C@H](CCC(F)(F)F)N(O)C=O)C(=O)Nc1nccs1` [Example 183, (2R,3S)-3-(Formyl-hydroxyamino)-2-(3-phenyl-1-propyl)-6,6,6-trifluorohexanoic Acid [(1S)-2,2-Dimethyl-1-(1,3-thiazol-2-ylcarbamoyl)-1-propyl]amide]: the Ki – broadly, a measure of affinity in units of concentration, obtained from inhibition or displacement – was 100 to 500 nM in assay [1]; over 1000 nM in assay [2]; under 100 nM in assay [3]; under 100 nM in assay [4]; 100 to 500 nM in assay [5]. In addition, in assay [6] (p.o.), the “Percentage Inhibition of Serum TNFα” value is “++ (50%-75%)”.
Regarding `CCC[C@@H]([C@@H](Cc1ccc(C)s1)C(=O)N[C@H](C(=O)Nc1nccs1)[C@@H](C)OCc1ccccn1)N(O)C=O` [Example 146, (2R,3S)-3-(Formyl-hydroxyamino)-2-(5-methyl-2-thiophenemethyl)hexanoic Acid [(1S,2R)-2-(2-Pyridylmethoxy)-1-(1,3-thiazol-2-ylcarbamoyl)-1-propyl]amide], the “Percentage Inhibition of Serum TNFα” value in assay [6] (s.c.) is recorded as “++ (50%-75%)”.

The values above are taken from patent publication US6329400A, “Formamide compounds as therapeutic agents” (Glaxo Wellcome Inc., priority 1998, dated 2001).
